# Laboratory results as given in patent US9370503B1, “Compounds for treating ocular diseases” (priority 2015, dated 2016).
# Experiments:
# ARPE-19 cells [1] = experiment: NaIO3-induced injury in ARPE-19 cells (MTT); assay type: cell-based, human; settings: 72 h
# Method: (§1) ARPE-19 cells were grown in DMEM/F12 medium supplemented with 10% FBS, 100 units/ml penicillin G, and 100 μg/ml streptomycin sulfate. HUVECs were grown in vascular cell basal medium supplemented with endothelial cell growth kit. Cells were incubated in a humidified incubator at 37° C. under 5% CO2 and 95% air.
# (§2) MTT assay was used to measure the viability of ARPE-19 cells and HUVECs. 2×10^5 ARPE-19 cells or 5×10^4 HUVECs were seeded in 96-well plates (100 μl/well) and allowed to grow overnight. Negative control was prepared by adding 100 μl medium without cells. The cells were then treated with fresh medium with a compound of Formula (II) (“(II)”) (0.03, 0.1, 0.3, 1, 3 and 10 μg/ml) and/or oxidants (NaIO3, H2O2, t-BHP and NaN3) for 12, 24, or 72 hours (200 μl/well). The vehicle control group was treated with vehicle. 20 μl MTT (5 mg/ml) was added to wells, and incubated for another 4 h. After incubation, the medium was discarded and 100 μl DMSO was added to solubilize formazan produced from MTT by the viable cells. Absorbance was measured at 570 nm using a microplate reader (Bio-Rad Laboratories, Inc., CA). Cells viability was calculated according to the following formula: Viability of cells (%)=(absorbance in tested sample−absorbance in negative control)/(absorbance in vehicle control−absorbance in negative control)×100%.
# HUVECs [2] = experiment: H2O2-induced injury in HUVECs (MTT); assay type: cell-based, human; settings: 24 hours; for enhancement of H2O2-induced injury in HUVECs: 10 μg/ml compound
# Method: as §1, §2
# ARPE-19 cells [3] = experiment: MTT assay, proliferation/cytotoxicity in ARPE-19 cells; assay type: cell-based, human; settings: 72 hours
# Method: as §1, §2
# [4] = Hypoxia-induced damage in HUVECs (MTT); assay type: cell-based, human; settings: human, HUVECs, 10 μg/ml, P<0.01, read-out: decrease of viability of HUVECs in hypoxic condition
# Method: as §1, §2
# (§3) Cells were allowed to attach overnight, and then exposed to (II) or vehicle under hypoxic condition for 72 h. Hypoxic conditions (1% O2, 5% CO2 and 94% N2) were maintained by using a temperature and humidity controlled environmental C-chamber by O2 and CO2 controllers (Proox Model 110 and Pro CO2 Model 120, Bio Spherix Ltd., Redfield, N.Y., USA) with N2 and CO2 gas sources.
# HUVECs [5] = experiment: Hypoxia-induced damage in HUVECs (MTT); assay type: cell-based, human; settings: 72 h
# Method: as §1, §2, §3
# ARPE-19 cells [6] = experiment: Hypoxia-induced damage in ARPE-19 cells (MTT); assay type: cell-based, human; settings: hypoxia 1% O2, 72 h
# Method: as §1
# MTT assay was used to measure the viability of ARPE-19 cells and HUVECs. 2×10^5 ARPE-19 cells or 5×10^4 HUVECs were seeded in 96-well plates (100 μl/well) and allowed to grow overnight. Negative control was prepared by adding 100 μl medium without cells. The cells were then treated with fresh medium with a compound of Formula (II) (“(II)”) (0.03, 0.1, 0.3, 1, 3 and 10 μg/ml) and/or oxidants (NaIO3, H2O2, t-BHP and NaN3) for 12, 24, or 72 hours (200 μl/well). The vehicle control group was treated with vehicle. 20 μl MTT (5 mg/ml) was added to wells, and incubated for another 4 h. After incubation, the medium was discarded and 100 μl DMSO was added to solubilize formazan produced from MTT by the viable cells. Absorbance was measured at 570 nm using a microplate reader (Bio-Rad Laboratories, Inc., CA). Cells viability was calculated according to the following formula: Viability of cells (%)=(absorbance in tested sample−absorbance in negative control)/(absorbance in vehicle control−absorbance in negative control)×100%. […]
# HUVECs [7] = experiment: t-BHP-induced injury in HUVECs (MTT); assay type: cell-based, human; settings: 12 hours
# Method: as §1, §2
# [8] = tested on: NaIO3 induced dry AMD rat model; experiment: NaIO3 induced dry AMD rat model, c-wave of ERG; assay type: in vivo; settings: 1% eye drops 3 times a day, 35 mg/kg NaIO3, BN rats
# Method: A total of thirty 8-week-old male Brown-Norway (BN) rats were randomly divided into 3 groups, 10 rats in normal group, 10 rats in NaIO3 group and 10 rats in (II)+NaIO3 group. Control group was instilled with solvent (2-hydroxypropyl-β-cyclodextrin, Sigma-Aldrich) alone without NaIO3 injection. NaIO3 group was instilled with solvent plus 35 mg/kg NaIO3 injection through hypoglossal vein; whereas (II)+NaIO3 group was instilled with 1% (II) eye drops plus 35 mg/kg NaIO3 injection. Both eyes of all rats were instilled with 1 drop for 3 times a day for 1 week before and 4 weeks after NaIO3 injection. At the end of 2 and 4 weeks, RPE function was measured with c-wave of ERG.
# BN rats were dark adapted for 2 hours, and then anesthetized with ketamine 35 mg/kg plus xylazine 5 mg/kg i.m, Half of the initial dose was given each 1 hour thereafter. Pupils of all rats were dilated with one drop each of 1% atropine, and 2.5% phenylephrine. Before recording, one drop of 0.5% tetracaine was given for surface anesthesia. All rats were kept warm during ERG measurement. DC-ERG recording methods developed by Peachey were followed. […] Data were analyzed by iWORX LabScribe Data Recording Software (iWorxOCB Sciences, Dover, N.H.). […]
# HUVECs [9] = experiment: NaIO3-induced injury in HUVECs (MTT); assay type: cell-based, human; settings: 3 and 10 μg/ml compound, 72 hours
# Method: as §1, §2
# ARPE-19 cells [10] = experiment: H2O2-induced injury in ARPE-19 cells (MTT); assay type: cell-based, human; settings: 10 μg/ml compound, 24 hours
# Method: as §1, §2
# HUVECs [11] = experiment: MTT assay, proliferation/cytotoxicity in HUVECs; assay type: cell-based, human; settings: 72 hours
# Method: as §1, §2
# ARPE-19 cells [12] = experiment: NaN3-induced injury in ARPE-19 cells (MTT); assay type: cell-based, human; settings: 0.03 μg/ml to 10 μg/ml compound, 72 hours
# Method: as §1, §2
# ARPE-19 cells [13] = experiment: t-BHP-induced injury in ARPE-19 cells (MTT); assay type: cell-based, human; settings: 12 hours
# Method: as §1, §2
# HUVECs [14] = experiment: NaN3-induced injury in HUVECs (MTT); assay type: cell-based, human; settings: 72 hours
# Method: as §1, §2
smiles,measurement,setting,value
CC(C)=CCC/C(C)=C/Cc1c([C@@H]2CC(=O)c3c(cc(O)c(CC=C(C)C)c3O)O2)ccc(O)c1O [Formula (II)],effect on viability in NaIO3-induced injury in ARPE-19 cells,"ARPE-19 cells [1]; 30 μg/ml NaIO3, 0.03, 1, 3 and 10 μg/ml compound, P<0.05",significantly reversed
same,reversal of viability in NaIO3-induced injury in ARPE-19 cells,"ARPE-19 cells [1]; 100 μg/ml NaIO3, 10 μg/ml compound",24%
same,reversal of viability in NaIO3-induced injury in ARPE-19 cells,"ARPE-19 cells [1]; 300 μg/ml NaIO3, 3 μg/ml compound",7%
same,enhancement of H2O2-induced injury in HUVECs,HUVECs [2]; 200 μM H2O2,63%
same,enhancement of H2O2-induced injury in HUVECs,HUVECs [2]; 400 μM H2O2,42%
same,effect on H2O2-induced injury in HUVECs,HUVECs [2]; 0.3 and 1 μg/ml compound,reversed
same,effect on proliferation of ARPE-19 cells,ARPE-19 cells [3]; 0.03 μg/ml to 3 μg/ml,did not affect
same,inhibition at 10 µg/mL,"ARPE-19 cells [3]; Homo sapiens, ARPE-19, 10 μg/ml",34%
same,"cytotoxicity at 72 h, 10 μg/ml",[4],97%
same,increase of viability of HUVECs in hypoxic condition,HUVECs [5]; 0.03 μg/ml,22%
same,increase of viability of HUVECs in hypoxic condition,HUVECs [5]; 0.1 μg/ml,19%
same,increase of viability of HUVECs in hypoxic condition,HUVECs [5]; 0.3 μg/ml,26%
same,effect on viability of ARPE-19 cells in hypoxic condition,ARPE-19 cells [6]; 0.03 μg/ml to 3 μg/ml,no effect
same,reversal of injury induced by hypoxia in ARPE-19 cells,ARPE-19 cells [6]; 10 μg/ml,24%
same,enhancement of t-BHP-induced injury in HUVECs,"HUVECs [7]; 50 μM t-BHP, 3 μg/ml compound",27%
same,enhancement of t-BHP-induced injury in HUVECs,"HUVECs [7]; 50 μM t-BHP, 10 μg/ml compound",71%
same,enhancement of t-BHP-induced injury in HUVECs,"HUVECs [7]; 100 μM t-BHP, 3 μg/ml compound",21%
same,enhancement of t-BHP-induced injury in HUVECs,"HUVECs [7]; 100 μM t-BHP, 10 μg/ml compound",80%
same,enhancement of t-BHP-induced injury in HUVECs,"HUVECs [7]; 200 μM t-BHP, 10 μg/ml compound",76%
same,c-wave of ERG in NaIO3-treated rats,[8],markedly reverse
same,reversal of NaIO3 induced dry AMD model (c-wave of ERG),[8],4 times
same,effect on NaIO3-induced injury in HUVECs,HUVECs [9],enhanced
same,reversal of H2O2-induced injury in ARPE-19 cells,ARPE-19 cells [10]; 200 μM H2O2,55%
same,reversal of H2O2-induced injury in ARPE-19 cells,ARPE-19 cells [10]; 400 μM H2O2,72%
same,effect on proliferation of HUVECs,HUVECs [11]; 0.03 μg/ml to 3 μg/ml,did not affect
same,inhibition at 10 µg/mL,"HUVECs [11]; Homo sapiens, HUVEC, 10 μg/ml",92%
same,effect on NaN3-induced injury in ARPE-19 cells,ARPE-19 cells [12],significantly reversed
same,effect on t-BHP-induced injury in ARPE-19 cells,ARPE-19 cells [13],significantly reversed
same,enhancement of NaN3-induced injury in HUVECs,"HUVECs [14]; 0.3 mM NaN3, 3 μg/ml compound",75%
same,enhancement of NaN3-induced injury in HUVECs,"HUVECs [14]; 0.3 mM NaN3, 10 μg/ml compound",95%
same,enhancement of NaN3-induced injury in HUVECs,"HUVECs [14]; 1 mM NaN3, 10 μg/ml compound",75%
same,enhancement of NaN3-induced injury in HUVECs,"HUVECs [14]; 3 mM NaN3, 3 μg/ml compound",44%
same,enhancement of NaN3-induced injury in HUVECs,"HUVECs [14]; 3 mM NaN3, 10 μg/ml compound",71%
